Counter-ions that a name gives are not always drawn. Like-named read-outs stand apart in the source and are kept apart here.
How the values were obtained:
[1] = Antidiuresis test in continuously hydrated rats with additional water loading (oral administration); format: in vivo, Male Wistar rats; settings: for change of plasma sodium level (in words): after three hours and four hours of the administration, additional water loads; for urine production after additional water loads: groups with additional water loads (15 mL/kg at 2 h and 3 h); for urine production after additional water loads / plasma sodium level, 3 hours after administration / plasma sodium level, 4 hours after administration / urine production: EX-a 100 mg/kg, EX-b 30 mg/kg; for urine production after additional water loads / urine production: dDAVP 30 μg/kg oral; for plasma sodium level, 3 hours after administration / plasma sodium level, 4 hours after administration: groups with additional water loads, oral, dDAVP 30 μg/kg; for urine production: groups without additional water loads, after two hours of the administration, maintained until four hours
Protocol: FIG. 1 is a graph showing temporal changes in urine volumes of individual groups in the pharmacological test (4): antidiuresis test in continuously hydrated rats with additional water loading. The vertical axis represents urine volume (mL/30 min) and the horizontal axis represents elapsed time (hr) from the administration of the test compound. Groups represented by “ . . . +Water” are water-loaded groups. The arrows in the horizontal axis represent the time points of additional water-loading.
(4) Antidiuresis Test in Continuously Hydrated Rats with Additional Water Loading (Oral Administration)
Male Wistar rats were used in the test. Initially, water load with 15 mL/kg of distilled water was forcedly administered to the rats. Every 30 minutes after loading water, urine volume collected during 30 minutes was measured and distilled water was forcedly administered to the rats in an amount equal to the urine volume excreted during the last 30 minutes. This water load procedure was repeated to the termination of the test to maintain the diuretic state. […] The individual groups were further divided into two subgroups, and additional distilled water of 15 mL/kg load was forcedly administered to one of the subgroups two times, i.e. at two hours and three hours after the administration. For comparison, the Vehicle group administered only with the vehicle was also subjected to the additional administrations of water load. Blood was collected from a half of the rats in each group subjected to additional administrations of water load, at three hours after the administration (immediately before the second additional water load) and from the other half at four hours after the administration, and plasma sodium levels were measured with an automatic electrolyte analyzer to determine the plasma sodium levels at three hours and four hours after the administration, respectively (each group consisted of seven to eight rats). Changes in the urine volume in individual groups are shown in FIG. 1, and the plasma sodium levels of the group administered with additional water loads are shown in Table 4.

IRAP = IRAP (Rattus norvegicus (Rat), UniProt P97629); assay: Inhibition of IRAP activity (AVP degradation by rat epididymal fat pad microsomes, MALDI-MS); settings: read-out: IRAP IC50
[2] = rat fat pad microsomes, AVP 25 μM, 1 h at 37° C.

Chain of IRAP (P97629 whole entry): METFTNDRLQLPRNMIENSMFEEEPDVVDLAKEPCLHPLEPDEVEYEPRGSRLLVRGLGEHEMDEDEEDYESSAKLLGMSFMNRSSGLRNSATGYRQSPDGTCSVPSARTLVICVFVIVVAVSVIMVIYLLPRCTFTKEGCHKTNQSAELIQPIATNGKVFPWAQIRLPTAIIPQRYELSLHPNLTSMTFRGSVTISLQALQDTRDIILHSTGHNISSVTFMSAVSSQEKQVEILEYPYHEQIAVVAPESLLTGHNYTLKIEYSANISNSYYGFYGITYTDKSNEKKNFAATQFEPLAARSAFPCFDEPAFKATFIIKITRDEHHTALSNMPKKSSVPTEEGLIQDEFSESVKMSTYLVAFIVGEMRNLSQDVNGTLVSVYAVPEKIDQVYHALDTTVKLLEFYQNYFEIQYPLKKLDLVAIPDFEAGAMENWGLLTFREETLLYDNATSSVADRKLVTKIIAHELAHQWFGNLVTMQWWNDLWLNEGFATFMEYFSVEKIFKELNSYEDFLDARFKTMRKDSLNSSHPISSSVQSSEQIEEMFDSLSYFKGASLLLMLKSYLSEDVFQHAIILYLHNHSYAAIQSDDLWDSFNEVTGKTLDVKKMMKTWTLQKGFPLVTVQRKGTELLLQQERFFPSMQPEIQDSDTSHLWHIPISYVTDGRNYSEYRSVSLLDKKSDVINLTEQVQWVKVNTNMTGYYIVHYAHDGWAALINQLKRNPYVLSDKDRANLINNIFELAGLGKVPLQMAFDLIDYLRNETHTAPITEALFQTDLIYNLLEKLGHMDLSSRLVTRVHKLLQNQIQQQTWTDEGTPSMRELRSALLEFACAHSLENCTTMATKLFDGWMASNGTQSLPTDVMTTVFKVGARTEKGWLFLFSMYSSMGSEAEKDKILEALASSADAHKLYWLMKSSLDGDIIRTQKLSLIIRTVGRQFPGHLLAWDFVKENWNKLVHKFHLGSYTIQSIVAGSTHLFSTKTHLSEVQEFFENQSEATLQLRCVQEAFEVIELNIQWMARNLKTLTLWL

IC50 (IRAP; [2]) | SMILES | also measured
 | CC(C)C[C@H](N)[C@](O)(Cc1cc(O[C@H]2CC[C@H](C)CC2)ccn1)C(=O)O (relative stereo) [EX-a, (2R,3S)-3-amino-2-hydroxy-5-methyl-2-({4-[(trans-4-methylcyclohexyl)oxy]pyridin-2-yl}methyl)hexanoic acid] | change of plasma sodium level (in words) [1]: slightly decreased; urine production after additional water loads [1]: resumed after administration of the additional water loads; plasma sodium level, 3 hours after administration [1]: 134.9 ± 0.4 mmol/L; plasma sodium level, 4 hours after administration [1]: 133.2 ± 0.7 mmol/L; urine production [1]: almost stopped
200 nM | CC(C)C[C@H](N)[C@](O)(Cc1cc(O)ccn1)C(=O)O [7(2), (2R,3S)-3-amino-2-hydroxy-2-[(4-hydroxypyridin-2-yl)methyl]-5-methylhexanoic acid] | 
 | CCSC[C@H](N)[C@](O)(Cc1cc(O[C@H]2CC[C@H](C)CC2)ccn1)C(=O)O [EX-b, (2R,3R)-3-amino-4-(ethylsulfanyl)-2-hydroxy-2-({4-[(trans-4-methylcyclohexyl)oxy]pyridin-2-yl}methyl)butanoic acid] | change of plasma sodium level (in words) [1]: slightly decreased; urine production after additional water loads [1]: resumed after administration of the additional water loads; plasma sodium level, 3 hours after administration [1]: 140.4 ± 0.4 mmol/L; plasma sodium level, 4 hours after administration [1]: 139.2 ± 0.5 mmol/L; urine production [1]: almost stopped
170 nM | CC(C)C[C@H](N)[C@@]1(Cc2cc(O[C@H]3CC[C@H](C)CC3)ccn2)OC(C)(C)OC1=O [Example 8, (5R)-5-[(1S)-1-amino-3-methylbutyl]-2,2-dimethyl-5-({4-[(trans-4-methylcyclohexyl)oxy]pyridin-2-yl}methyl)-1,3-dioxolan-4-one dihydrochloride] | 
250 nM | COc1ccnc(C[C@](O)(C(=O)O)[C@@H](N)CC(C)C)c1C [Example 22] | 
8.2 nM | N[C@@H](c1ccc(C2CC2)cc1)[C@](O)(Cc1cc(OC2CCCCC2)ccn1)C(=O)O [Example 23] | 
290 nM | COc1cc(C[C@](O)(C(=O)O)[C@@H](N)CC(C)C)ncc1Br [Example 53] | 
130 nM | COc1cc(C[C@](O)(C(=O)O)[C@@H](N)CC(C)C)ncc1COCc1ccccc1 [Example 57] | 
290 nM | CC(C)C[C@H](N)[C@](O)(Cc1cc2c(cn1)OCCO2)C(=O)O [Example 62] | 
1.9 nM | CC(C)CC[C@H](N)[C@](O)(Cc1cc(OC2CCCCC2)ccn1)C(=O)O [Example 66] | 
 | N[C@@H](c1ccc(Br)cc1)[C@](O)(Cc1cc(OC2CCCCC2)ccn1)C(=O)O [Example 68] | IC50 (IRAP; value marked *: measured using a dihydrochloride salt of the compound of the Example): 5.4 nM
13 nM | N[C@@H](COc1cccc(Br)c1)[C@](O)(Cc1cc(OC2CCCCC2)ccn1)C(=O)O [Example 70] | 
15 nM | NC(COc1ccccc1Br)C(O)(Cc1cc(OC2CCCCC2)ccn1)C(=O)O (centres unmarked) [Example 71] | 
5.3 nM | N[C@@H](COCCC(F)(F)F)[C@](O)(Cc1cc(OC2CCCCC2)ccn1)C(=O)O [Example 74] | 
1.2 nM | COCCCCC[C@H](N)[C@](O)(Cc1cc(OC2CCCCC2)ccn1)C(=O)O [Example 75] | 
8.8 nM | Cc1ccc(OC[C@H](N)[C@](O)(Cc2cc(OC3CCCCC3)ccn2)C(=O)O)nc1 [Example 77] | 
33 nM | N[C@@H](COC1CCCCC1)[C@](O)(Cc1cc(OCCC2CC2)ccn1)C(=O)O [Example 79] | 
110 nM | C[C@H]1CC[C@H](Oc2ccnc(C[C@](O)(C(=O)O)[C@@H](N)Cn3cccn3)c2)CC1 [Example 85] | 
15 nM | N[C@@H](COc1ccc(F)cc1)[C@](O)(Cc1cc(NC2CCCCC2)ccn1)C(=O)O [Example 91] | 
2.8 nM | CC(C)C[C@H](N)[C@](O)(Cc1cc(OCCOC2CCCCC2)ccn1)C(=O)O [Example 97] | 
200 nM | COc1cccc(Oc2ccnc(C[C@](O)(C(=O)O)[C@@H](N)CC(C)C)c2)c1 [Example 101] | 
 | NC(=O)CC[C@@H]1NC(=O)[C@H](Cc2ccccc2)NC(=O)[C@H](Cc2ccc(O)cc2)NC(=O)CCSSC[C@@H](C(=O)N2CCC[C@H]2C(=O)N[C@H](CCCN=C(N)N)C(=O)NCC(N)=O)NC(=O)[C@H](CC(N)=O)NC1=O [dDAVP, Desmopressin, reference compound] | change of plasma sodium level (in words) [1]: more significant decreases; urine production after additional water loads [1]: not resumed; plasma sodium level, 3 hours after administration [1]: 132.0 ± 0.4 mmol/L; plasma sodium level, 4 hours after administration [1]: 128.0 ± 0.3 mmol/L; urine production [1]: almost stopped

SMILES | IC50 (IRAP; [2]) | also measured
N[C@@H](c1ccc(S(=O)(=O)C2CC2)cc1)[C@](O)(Cc1cc(OC2CCCCC2)ccn1)C(=O)O [Example 24] | 6.2 nM | 
COCc1ccc(OC[C@H](N)[C@](O)(Cc2cc(OC3CCCCC3)ccn2)C(=O)O)cc1 [Example 30] | 11 nM | 
COc1cc(F)cc(OC[C@H](N)[C@](O)(Cc2cc(OC3CCCCC3)ccn2)C(=O)O)c1 [Example 31] | 27 nM | 
CC(C)C[C@H](N)[C@](O)(Cc1cc2c(cn1)ncn2CCC1CCCCC1)C(=O)O [Example 33] | 2.5 nM | 
N[C@@H](c1ccc(-c2ccccc2)cc1)[C@](O)(Cc1cc(OC2CCCCC2)ccn1)C(=O)O [Example 36] | 4.9 nM | 
N[C@@H](/C=C/c1ccccc1)[C@](O)(Cc1cc(OC2CCCCC2)ccn1)C(=O)O [Example 40] | 8 nM | 
CS(=O)(=O)c1ccc(-c2ccc([C@H](N)[C@](O)(Cc3cc(OC4CCCCC4)ccn3)C(=O)O)cc2)cc1 [Example 45] | 0.42 nM | 
N[C@@H](c1ccc(N2CCOCC2)cc1)[C@](O)(Cc1cc(OC2CCCCC2)ccn1)C(=O)O [Example 48] | 5.2 nM | 
COCc1ccc([C@H](N)[C@](O)(Cc2cc(OC3CCCCC3)ccn2)C(=O)O)cc1 [Example 50] | 14 nM | 
N[C@@H](COCc1ccccc1)[C@](O)(Cc1cc(OC2CCCCC2)ccn1)C(=O)O [Example 51] | 13 nM | 

— patent US10059720B2, “Pyridine derivative” (Astellas Pharma Inc., priority 2014, dated 2018)
